In ChEMBL document CHEMBL4393680, “Design, synthesis and biological evaluation of novel thioquinazolinone-based 2-aminobenzamide derivatives as potent histone deacetylase (HDAC) inhibitors” (Eur J Med Chem, 2019):
pIC50: −log10 of the molar value.

Tests used:
[1] = tested on: SMMC-7721; assay: Antiproliferative activity against human SMMC7721 cells assessed as reduction in cell growth incubated for 72 hrs by CCK-8 assay; type: functional, cell-based; details: SMMC-7721, 72 h
[2] = tested on: A-375; assay: Antiproliferative activity against human A375 cells assessed as reduction in cell growth at 8 uM incubated for 72 hrs by CCK-8 assay relative to control; type: functional; details: A-375, 72 h
[3] = tested on: A-375; assay: Antiproliferative activity against human A375 cells assessed as reduction in cell growth at 2 uM incubated for 72 hrs by CCK-8 assay relative to control; type: functional; details: A-375, 72 h
[4] = tested on: HeLa; assay: Antiproliferative activity against human HeLa cells assessed as reduction in cell growth at 8 uM incubated for 72 hrs by CCK-8 assay relative to control; type: functional
[5] = tested on: HeLa; assay: Antiproliferative activity against human HeLa cells assessed as reduction in cell growth at 2 uM incubated for 72 hrs by CCK-8 assay relative to control; type: functional
[6] = tested on: A549; assay: Antiproliferative activity against human A549 cells assessed as reduction in cell growth at 8 uM incubated for 72 hrs by CCK-8 assay relative to control; type: functional; details: A549, 72 h
[7] = tested on: A549; assay: Antiproliferative activity against human A549 cells assessed as reduction in cell growth at 2 uM incubated for 72 hrs by CCK-8 assay relative to control; type: functional; details: A549, 72 h
[8] = tested on: HCT-116; assay: Antiproliferative activity against human HCT116 cells assessed as reduction in cell growth at 8 uM incubated for 72 hrs by CCK-8 assay relative to control; type: functional; details: HCT-116, 72 h
[9] = tested on: HCT-116; assay: Antiproliferative activity against human HCT116 cells assessed as reduction in cell growth at 2 uM incubated for 72 hrs by CCK-8 assay relative to control; type: functional; details: HCT-116, 72 h
[10] = tested on: SMMC-7721; assay: Antiproliferative activity against human SMMC7721 cells assessed as reduction in cell growth at 8 uM incubated for 72 hrs by CCK-8 assay relative to control; type: functional; details: SMMC-7721, 72 h
[11] = tested on: SMMC-7721; assay: Antiproliferative activity against human SMMC7721 cells assessed as reduction in cell growth at 2 uM incubated for 72 hrs by CCK-8 assay relative to control; type: functional; details: SMMC-7721, 72 h

| Structure (SMILES) | pIC50 [1] | inhibition at 8 µM [2] [%] | inhibition at 2 µM [3] [%] | inhibition at 8 µM [4] [%] | inhibition at 2 µM [5] [%] | inhibition at 8 µM [6] [%] | inhibition at 2 µM [7] [%] | inhibition at 8 µM [8] [%] | inhibition at 2 µM [9] [%] | inhibition at 8 µM [10] [%] | inhibition at 2 µM [11] [%] |
| --- | --- | --- | --- | --- | --- | --- | --- | --- | --- | --- | --- |
| Cc1cccc2nc(SCc3ccc(/C=C/C(=O)Nc4ccccc4N)cc3)n(C)c(=O)c12 | 5.45 | 32.4 | 24.4 | 51.8 | 44.3 | 46 | 39.4 | 11.7 | 8.9 | 52.3 | 50.5 |
| Cc1ccc2nc(SCc3ccc(/C=C/C(=O)Nc4ccccc4N)cc3)n(C)c(=O)c2c1 | – | 22.8 | 9 | 55.3 | 25.5 | 38.7 | 26.7 | 18.6 | 7.2 | 57.6 | 34.1 |
| Cn1c(SCc2ccc(/C=C/C(=O)Nc3ccccc3N)cc2)nc2cc(Br)ccc2c1=O | – | 6.3 | 4 | 30.3 | 17.7 | 14 | 1.9 | 19.4 | 9 | 15.2 | 13.2 |
| COc1ccc2c(=O)n(-c3cccc(Cl)c3)c(SCc3ccc(/C=C/C(=O)Nc4ccccc4N)cc3)nc2c1 | – | 8.9 | 5.4 | 24.9 | 16.3 | 37.2 | 4.1 | 12.7 | 2.1 | 5.1 | 0.7 |
| CCn1c(SCc2ccc(C(=O)Nc3ccccc3N)cc2)nc2cc(F)ccc2c1=O | – | 10.3 | 8.4 | 31 | 25.7 | 56.5 | 54.4 | 64.3 | 5.3 | 20.4 | 0.8 |
| Cc1cccc2c(=O)n(C)c(SCc3ccc(/C=C/C(=O)Nc4ccccc4N)cc3)nc12 | – | 13.7 | 9.3 | 56.6 | 31.6 | 43.8 | 34 | 5.8 | 4.5 | 36.4 | 26.3 |
| CCCCn1c(SCc2ccc(C(=O)Nc3ccccc3N)cc2)nc2cc(Br)ccc2c1=O | – | 37.7 | 8.5 | 34.7 | 21.3 | 39.7 | 28.1 | 51.9 | 14.1 | 26.4 | 18.2 |
| Nc1ccccc1NC(=O)c1ccc(CSc2nc3cc(Br)ccc3c(=O)n2-c2cccc(Cl)c2)cc1 | – | 32.9 | 17.4 | 67 | 55 | 36.4 | 35.6 | 31.3 | 11.3 | 21 | 10.5 |
| CCn1c(SCc2ccc(C(=O)Nc3ccccc3N)cc2)nc2cc(OC)ccc2c1=O | – | 31.4 | 20 | 44 | 42.1 | 30.3 | 28 | 6.7 | 5 | 45.8 | 32.2 |
| CCn1c(SCc2ccc(C(=O)Nc3ccccc3N)cc2)nc2cc(Cl)ccc2c1=O | – | 49.9 | 12.7 | 43.4 | 39.1 | 13.7 | 3.6 | 7.4 | 7.3 | 34.2 | 18.4 |
| COc1ccc2c(=O)n(-c3cccc(Cl)c3)c(SCC(=O)Nc3ccccc3N)nc2c1 | – | 43.3 | 3.2 | 38.5 | 27.8 | 28.2 | 13 | 6.6 | 3.9 | 38.1 | 24.6 |
| CCn1c(SCc2ccc(/C=C/C(=O)Nc3ccccc3N)cc2)nc2cc(Cl)ccc2c1=O | – | 22.9 | 12 | 21.8 | 8.7 | 45.7 | 31.6 | 28.4 | 12.1 | 28.4 | 12.1 |
| CCn1c(SCc2ccc(C(=O)Nc3cc(F)ccc3N)cc2)nc2cc(OC)ccc2c1=O | 5.31 | 38.8 | 17.1 | 41.6 | 6.9 | 36.4 | 12.3 | 67.8 | 50.3 | 61.4 | 36 |
| CCn1c(SCC(=O)Nc2ccccc2N)nc2cc(Cl)ccc2c1=O | – | 32.5 | 24.4 | 59.7 | 39.2 | 27.5 | 14.2 | 6.9 | 3.9 | 2.1 | 1.8 |
| Cn1c(SCc2ccc(/C=C/C(=O)Nc3ccccc3N)cc2)nc2cc(F)ccc2c1=O | – | 6.4 | 1.6 | 21.2 | 12.7 | 22.9 | 2.9 | 3.3 | 0.9 | 29.5 | 12.3 |
| COc1ccc2c(=O)n(C)c(SCc3ccc(/C=C/C(=O)Nc4ccccc4N)cc3)nc2c1 | – | 10.4 | 2.5 | 30.2 | 20.7 | 56.6 | 54.3 | 12.2 | 9.4 | 15.4 | 3.6 |
| CCCCn1c(SCc2ccc(/C=C/C(=O)Nc3ccccc3N)cc2)nc2cc(F)ccc2c1=O | – | 15.8 | 1.9 | 26.2 | 11.6 | 13.5 | 4.6 | 33.2 | 12 | 29 | 10.2 |
